# Data reported in patent publication US20150087622A1, “NEW METHOD OF USE OF A PESTICIDE” (SYNGENTA PARTICIPATIONS AG, priority 2012, published 2015).
# Test system: Diabrotica balteata
# Assay: Transovarial effects on Diabrotica balteata adults fed on sprayed bean plants (% egg mortality)
# Assay type: in vivo
# Conditions: 5 g AI ha^-1
# Description: The following IGRs in Table 1 were tested for their transovarial effects on Diabrotica balteata by observing percentage egg mortality.
# Bean plants (Phaseolus vulgaris, var. Amata) were treated in an automatic spray chamber (ARO-1) with around 500 l/ha. After drying of the spray deposits, plants were placed in gauze cages and infested with newly hatched (0-24 h old) Diabrotica balteata adults. After seven days, treated plants were removed and replaced by non-treated plants. From day seven to day 38 eggs were collected in three-day intervals, counted and checked on number of hatched larvae (% egg mortality). Percentage egg mortality was calculated as the number of unhatched eggs per total number of eggs laid.
row,SMILES,"total number of sterilised (unhatched) eggs, considered over the whole test period"
1,"O=C(NC(=O)c1c(F)cccc1F)Nc1cc(Cl)c(OC(F)(F)C(F)C(F)(F)F)cc1Cl (stereo not shown) [Match, Lufenuron]",~20%

# Same assay, conditions: 12.5 g AI ha^-1
row,SMILES,"total number of sterilised (unhatched) eggs, considered over the whole test period"
1,"O=C(NC(=O)c1c(F)cccc1F)Nc1cc(Cl)c(OC(F)(F)C(F)C(F)(F)F)cc1Cl (stereo not shown) [Match, Lufenuron]",≈ 25%

# Same assay, conditions: 25 g AI ha^-1
row,SMILES,"total number of sterilised (unhatched) eggs, considered over the whole test period"
1,"O=C(NC(=O)c1c(F)cccc1F)Nc1cc(Cl)c(OC(F)(F)C(F)C(F)(F)F)cc1Cl (stereo not shown) [Match, Lufenuron]",≈ 25%

# Same assay, conditions: Diabrotica balteata; 10 ppm; egg laying period 1; read-out: % egg mortality: on egg laying period 1
row,SMILES,mortality at 10 ppm
1,"O=C(NC(=O)c1c(F)cccc1F)Nc1cc(Cl)c(F)c(Cl)c1F [Nomolt, Teflubenzuron]",40%
2,"CCc1ccc(C(=O)NN(C(=O)c2cc(C)cc(C)c2)C(C)(C)C)cc1 [Mimic, Tebufenozide]",7%
3,"O=C(NC(=O)c1c(F)cccc1F)Nc1cc(Cl)c(OC(F)(F)C(F)C(F)(F)F)cc1Cl (stereo not shown) [Match, Lufenuron]",100%

# Same assay, conditions: Diabrotica balteata; 10 ppm; egg laying period 2; read-out: % egg mortality: on egg laying period 2
row,SMILES,mortality at 10 ppm
1,"O=C(NC(=O)c1c(F)cccc1F)Nc1cc(Cl)c(F)c(Cl)c1F [Nomolt, Teflubenzuron]",15%
2,"CCc1ccc(C(=O)NN(C(=O)c2cc(C)cc(C)c2)C(C)(C)C)cc1 [Mimic, Tebufenozide]",9%
3,"O=C(NC(=O)c1c(F)cccc1F)Nc1cc(Cl)c(OC(F)(F)C(F)C(F)(F)F)cc1Cl (stereo not shown) [Match, Lufenuron]",100%

# Same assay, conditions: Diabrotica balteata; 10 ppm; egg laying period 3; read-out: % egg mortality: on egg laying period 3
row,SMILES,mortality at 10 ppm
1,"O=C(NC(=O)c1c(F)cccc1F)Nc1cc(Cl)c(F)c(Cl)c1F [Nomolt, Teflubenzuron]",7%
2,"CCc1ccc(C(=O)NN(C(=O)c2cc(C)cc(C)c2)C(C)(C)C)cc1 [Mimic, Tebufenozide]",8%
3,"O=C(NC(=O)c1c(F)cccc1F)Nc1cc(Cl)c(OC(F)(F)C(F)C(F)(F)F)cc1Cl (stereo not shown) [Match, Lufenuron]",73%

# Same assay, conditions: Diabrotica balteata; 10 ppm; egg laying period 4; read-out: % egg mortality: on egg laying period 4
row,SMILES,mortality at 10 ppm
1,"O=C(NC(=O)c1c(F)cccc1F)Nc1cc(Cl)c(F)c(Cl)c1F [Nomolt, Teflubenzuron]",11%
2,"CCc1ccc(C(=O)NN(C(=O)c2cc(C)cc(C)c2)C(C)(C)C)cc1 [Mimic, Tebufenozide]",11%
3,"O=C(NC(=O)c1c(F)cccc1F)Nc1cc(Cl)c(OC(F)(F)C(F)C(F)(F)F)cc1Cl (stereo not shown) [Match, Lufenuron]",17%

# Same assay, conditions: Diabrotica balteata; 10 ppm; egg laying period 5; read-out: % egg mortality: on egg laying period 5
row,SMILES,mortality at 10 ppm
1,"O=C(NC(=O)c1c(F)cccc1F)Nc1cc(Cl)c(F)c(Cl)c1F [Nomolt, Teflubenzuron]",8%
2,"O=C(NC(=O)c1c(F)cccc1F)Nc1cc(Cl)c(OC(F)(F)C(F)C(F)(F)F)cc1Cl (stereo not shown) [Match, Lufenuron]",8%

# Same assay, conditions: Diabrotica balteata; 10 ppm; egg laying period 6; read-out: % egg mortality: on egg laying period 6
row,SMILES,mortality at 10 ppm
1,"O=C(NC(=O)c1c(F)cccc1F)Nc1cc(Cl)c(F)c(Cl)c1F [Nomolt, Teflubenzuron]",14%
2,"O=C(NC(=O)c1c(F)cccc1F)Nc1cc(Cl)c(OC(F)(F)C(F)C(F)(F)F)cc1Cl (stereo not shown) [Match, Lufenuron]",9%

# Same assay, conditions: Diabrotica balteata; 10 ppm; egg laying period 7; read-out: % egg mortality: on egg laying period 7
row,SMILES,mortality at 10 ppm
1,"O=C(NC(=O)c1c(F)cccc1F)Nc1cc(Cl)c(OC(F)(F)C(F)C(F)(F)F)cc1Cl (stereo not shown) [Match, Lufenuron]",12%

# Same assay, conditions: Diabrotica balteata; 10 ppm; egg laying period 8; read-out: % egg mortality: on egg laying period 8
row,SMILES,mortality at 10 ppm
1,"O=C(NC(=O)c1c(F)cccc1F)Nc1cc(Cl)c(OC(F)(F)C(F)C(F)(F)F)cc1Cl (stereo not shown) [Match, Lufenuron]",8%

# Same assay, conditions: Diabrotica balteata; 25 ppm; egg laying period 1; read-out: % egg mortality: on egg laying period 1
row,SMILES,mortality at 25 ppm
1,"O=C(NC(=O)c1c(F)cccc1F)Nc1cc(Cl)c(F)c(Cl)c1F [Nomolt, Teflubenzuron]",76%
2,"CCc1ccc(C(=O)NN(C(=O)c2cc(C)cc(C)c2)C(C)(C)C)cc1 [Mimic, Tebufenozide]",9%
3,"O=C(NC(=O)c1c(F)cccc1F)Nc1cc(Cl)c(OC(F)(F)C(F)C(F)(F)F)cc1Cl (stereo not shown) [Match, Lufenuron]",100%

# Same assay, conditions: Diabrotica balteata; 25 ppm; egg laying period 2; read-out: % egg mortality: on egg laying period 2
row,SMILES,mortality at 25 ppm
1,"O=C(NC(=O)c1c(F)cccc1F)Nc1cc(Cl)c(F)c(Cl)c1F [Nomolt, Teflubenzuron]",48%
2,"CCc1ccc(C(=O)NN(C(=O)c2cc(C)cc(C)c2)C(C)(C)C)cc1 [Mimic, Tebufenozide]",13%
3,"O=C(NC(=O)c1c(F)cccc1F)Nc1cc(Cl)c(OC(F)(F)C(F)C(F)(F)F)cc1Cl (stereo not shown) [Match, Lufenuron]",100%

# Same assay, conditions: Diabrotica balteata; 25 ppm; egg laying period 3; read-out: % egg mortality: on egg laying period 3
row,SMILES,mortality at 25 ppm
1,"O=C(NC(=O)c1c(F)cccc1F)Nc1cc(Cl)c(F)c(Cl)c1F [Nomolt, Teflubenzuron]",34%
2,"CCc1ccc(C(=O)NN(C(=O)c2cc(C)cc(C)c2)C(C)(C)C)cc1 [Mimic, Tebufenozide]",9%
3,"O=C(NC(=O)c1c(F)cccc1F)Nc1cc(Cl)c(OC(F)(F)C(F)C(F)(F)F)cc1Cl (stereo not shown) [Match, Lufenuron]",85%

# Same assay, conditions: Diabrotica balteata; 25 ppm; egg laying period 4; read-out: % egg mortality: on egg laying period 4
row,SMILES,mortality at 25 ppm
1,"O=C(NC(=O)c1c(F)cccc1F)Nc1cc(Cl)c(F)c(Cl)c1F [Nomolt, Teflubenzuron]",11%
2,"CCc1ccc(C(=O)NN(C(=O)c2cc(C)cc(C)c2)C(C)(C)C)cc1 [Mimic, Tebufenozide]",10%
3,"O=C(NC(=O)c1c(F)cccc1F)Nc1cc(Cl)c(OC(F)(F)C(F)C(F)(F)F)cc1Cl (stereo not shown) [Match, Lufenuron]",15%

# Same assay, conditions: Diabrotica balteata; 25 ppm; egg laying period 6; read-out: % egg mortality: on egg laying period 6
row,SMILES,mortality at 25 ppm
1,"O=C(NC(=O)c1c(F)cccc1F)Nc1cc(Cl)c(F)c(Cl)c1F [Nomolt, Teflubenzuron]",13%
2,"O=C(NC(=O)c1c(F)cccc1F)Nc1cc(Cl)c(OC(F)(F)C(F)C(F)(F)F)cc1Cl (stereo not shown) [Match, Lufenuron]",8%

# Same assay, conditions: Diabrotica balteata; 25 ppm; egg laying period 7; read-out: % egg mortality: on egg laying period 7
row,SMILES,mortality at 25 ppm
1,"O=C(NC(=O)c1c(F)cccc1F)Nc1cc(Cl)c(OC(F)(F)C(F)C(F)(F)F)cc1Cl (stereo not shown) [Match, Lufenuron]",9%

# Same assay, conditions: Diabrotica balteata; 50 ppm; egg laying period 2; read-out: % egg mortality: on egg laying period 2
row,SMILES,mortality at 50 ppm
1,"O=C(NC(=O)c1c(F)cccc1F)Nc1cc(Cl)c(F)c(Cl)c1F [Nomolt, Teflubenzuron]",67%
2,"CCc1ccc(C(=O)NN(C(=O)c2cc(C)cc(C)c2)C(C)(C)C)cc1 [Mimic, Tebufenozide]",10%
3,"O=C(NC(=O)c1c(F)cccc1F)Nc1cc(Cl)c(OC(F)(F)C(F)C(F)(F)F)cc1Cl (stereo not shown) [Match, Lufenuron]",100%

# Same assay, conditions: Diabrotica balteata; 50 ppm; egg laying period 3; read-out: % egg mortality: on egg laying period 3
row,SMILES,mortality at 50 ppm
1,"O=C(NC(=O)c1c(F)cccc1F)Nc1cc(Cl)c(F)c(Cl)c1F [Nomolt, Teflubenzuron]",14%
2,"CCc1ccc(C(=O)NN(C(=O)c2cc(C)cc(C)c2)C(C)(C)C)cc1 [Mimic, Tebufenozide]",10%
3,"O=C(NC(=O)c1c(F)cccc1F)Nc1cc(Cl)c(OC(F)(F)C(F)C(F)(F)F)cc1Cl (stereo not shown) [Match, Lufenuron]",96%

# Same assay, conditions: Diabrotica balteata; 50 ppm; egg laying period 4; read-out: % egg mortality: on egg laying period 4
row,SMILES,mortality at 50 ppm
1,"O=C(NC(=O)c1c(F)cccc1F)Nc1cc(Cl)c(F)c(Cl)c1F [Nomolt, Teflubenzuron]",11%
2,"CCc1ccc(C(=O)NN(C(=O)c2cc(C)cc(C)c2)C(C)(C)C)cc1 [Mimic, Tebufenozide]",13%
3,"O=C(NC(=O)c1c(F)cccc1F)Nc1cc(Cl)c(OC(F)(F)C(F)C(F)(F)F)cc1Cl (stereo not shown) [Match, Lufenuron]",50%

# Same assay, conditions: Diabrotica balteata; 50 ppm; egg laying period 5; read-out: % egg mortality: on egg laying period 5
row,SMILES,mortality at 50 ppm
1,"O=C(NC(=O)c1c(F)cccc1F)Nc1cc(Cl)c(F)c(Cl)c1F [Nomolt, Teflubenzuron]",13%
2,"O=C(NC(=O)c1c(F)cccc1F)Nc1cc(Cl)c(OC(F)(F)C(F)C(F)(F)F)cc1Cl (stereo not shown) [Match, Lufenuron]",40%

# Same assay, conditions: Diabrotica balteata; 50 ppm; egg laying period 6; read-out: % egg mortality: on egg laying period 6
row,SMILES,mortality at 50 ppm
1,"O=C(NC(=O)c1c(F)cccc1F)Nc1cc(Cl)c(F)c(Cl)c1F [Nomolt, Teflubenzuron]",10%
2,"O=C(NC(=O)c1c(F)cccc1F)Nc1cc(Cl)c(OC(F)(F)C(F)C(F)(F)F)cc1Cl (stereo not shown) [Match, Lufenuron]",9%

# Same assay, conditions: Diabrotica balteata; 50 ppm; egg laying period 7; read-out: % egg mortality: on egg laying period 7
row,SMILES,mortality at 50 ppm
1,"O=C(NC(=O)c1c(F)cccc1F)Nc1cc(Cl)c(OC(F)(F)C(F)C(F)(F)F)cc1Cl (stereo not shown) [Match, Lufenuron]",8%

# Same assay, conditions: Diabrotica balteata; 50 ppm; egg laying period 8; read-out: % egg mortality: on egg laying period 8
row,SMILES,mortality at 50 ppm
1,"O=C(NC(=O)c1c(F)cccc1F)Nc1cc(Cl)c(OC(F)(F)C(F)C(F)(F)F)cc1Cl (stereo not shown) [Match, Lufenuron]",8%

# Same assay, conditions: Rate 5 g AI/ha
SMILES,Spray interval (days),Spray interval
"O=C(NC(=O)c1c(F)cccc1F)Nc1cc(Cl)c(F)c(Cl)c1F [Nomolt, Teflubenzuron]",Insufficient,
"O=C(NC(=O)c1c(F)cccc1F)Nc1cc(Cl)c(OC(F)(F)C(F)C(F)(F)F)cc1Cl (stereo not shown) [Match, Lufenuron]",,5 days

# Same assay, conditions: Rate 12.5 g AI/ha
SMILES,Spray interval (days),Spray interval
"O=C(NC(=O)c1c(F)cccc1F)Nc1cc(Cl)c(F)c(Cl)c1F [Nomolt, Teflubenzuron]",Insufficient,
"O=C(NC(=O)c1c(F)cccc1F)Nc1cc(Cl)c(OC(F)(F)C(F)C(F)(F)F)cc1Cl (stereo not shown) [Match, Lufenuron]",,7 days

# Same assay, conditions: Rate 25 g AI/ha
row,SMILES,Spray interval
1,"O=C(NC(=O)c1c(F)cccc1F)Nc1cc(Cl)c(F)c(Cl)c1F [Nomolt, Teflubenzuron]",3 days
2,"O=C(NC(=O)c1c(F)cccc1F)Nc1cc(Cl)c(OC(F)(F)C(F)C(F)(F)F)cc1Cl (stereo not shown) [Match, Lufenuron]",7 days

# Same assay, conditions: at the used dose rates
row,SMILES,Transovarial effects on treated adults of Diabrotica balteata
1,"O=C(NC(=O)c1c(F)cccc1F)Nc1cc(Cl)c(F)c(Cl)c1F [Nomolt, Teflubenzuron]",Transovarial effects can be observed
2,"CCc1ccc(C(=O)NN(C(=O)c2cc(C)cc(C)c2)C(C)(C)C)cc1 [Mimic, Tebufenozide]",transovarially inactive
3,"O=C(NC(=O)c1c(F)cccc1F)Nc1cc(Cl)c(OC(F)(F)C(F)C(F)(F)F)cc1Cl (stereo not shown) [Match, Lufenuron]",Transovarial effects can be observed

# Test system: Spodoptera frugiperda
# Assay: Foliar spray application on cotton, larval mortality of Spodoptera frugiperda
# Assay type: in vivo
# Conditions: 4 DAT (days after treatment)
# From the text: For example on both Spodoptera frugiperda and Plutella xylostella similar activities were obtained for the same rates: […]
row,SMILES,LC50
1,"O=C(NC(=O)c1c(F)cccc1F)Nc1cc(Cl)c(OC(F)(F)C(F)C(F)(F)F)cc1Cl (stereo not shown) [Match, Lufenuron]",LC50 = 1 ppm
